1 compound from patent US9707203B1, “Methods of killing bacteria and preventing or treating bacterial infection with oxidation products of safranal and methods of synthesizing safranal epoxides” (King Abdulaziz University, priority 2016, dated 2017) can be followed below.

The subject of the experiment is methicillin resistant Staphylococcus aureus (MRSA). Kind of experiment: Agar well diffusion method, antibacterial activity on Mueller Hinton media. The format is cell-based. Conditions: for Inhibition zone diameter: bacterial lawn of Staphylococcus aureus grown on Mueller Hinton media, agar well diffusion. Here is the method:
The antibacterial activities of safranal, a mixture of compound 2 and compound 3 obtained by the thermal epoxidation of safranal according to scheme 1, and a mixture of compound 2 and compound 3 obtained by the photochemical epoxidation of safranal according to scheme 2 against methicillin resistant Staphylococcus aureus (MRSA) were determined by the agar well diffusion method described by Collins, C. H., P. M. Lyne, J. M. Grange, Microbial Methods., 6th Edition, Butterworhs Co. Ltd, London; 1989. p. 410, incorporated herein by reference in its entirety.
Table 1: Antibacterial Activity (Inhibition Zone Diameter) of the Mixture of Compound 2 and Compound 3 Obtained by the Thermal Epoxidation of Safranal or by the Photochemical Epoxidation of Safranal, and Safranal Against Staphylococcus aureus Grown on Mueller Hinton Media Using Agar Well Diffusion Method
For orientation: Agar diffusion results depend on both activity and mobility in agar.

In turn, `CC1=C(C=O)C(C)(C)CC=C1` [Safranal, 2,6,6-trimethylcyclohexa-1,3-diene-1-carbaldehyde] displayed an Inhibition zone diameter of 27.00 mm. The “Inhibition zone in the bacterial lawn (presence/absence)” value (Staphylococcus aureus on Mueller Hinton media in a petri dish, agar well containing test substance, FIG. 3B-3D) is “presence of an inhibition zone”. The compound further returned an Inhibition zone diameter (listed as safranal) of 27 mm.
